This note sets out measurements from ChEMBL document CHEMBL3132769, “Fragment growing to retain or alter the selectivity of anchored kinase hinge-binding fragments” (Medchemcomm, 2014).

The target of experiment [1] is Protein kinase C beta type (Homo sapiens) (UniProt P05771). The experiment can be described thus: Inhibition of human full length PKC beta2 expressed in baculovirus assessed as substrate phosphorylation using fluorescence-labelled peptides as substrate at 2 uM after 90 mins by microfluidic peptide phosphorylation assay.
Protein kinase C beta type (Homo sapiens), sequence (P05771 2-671 limits assumed): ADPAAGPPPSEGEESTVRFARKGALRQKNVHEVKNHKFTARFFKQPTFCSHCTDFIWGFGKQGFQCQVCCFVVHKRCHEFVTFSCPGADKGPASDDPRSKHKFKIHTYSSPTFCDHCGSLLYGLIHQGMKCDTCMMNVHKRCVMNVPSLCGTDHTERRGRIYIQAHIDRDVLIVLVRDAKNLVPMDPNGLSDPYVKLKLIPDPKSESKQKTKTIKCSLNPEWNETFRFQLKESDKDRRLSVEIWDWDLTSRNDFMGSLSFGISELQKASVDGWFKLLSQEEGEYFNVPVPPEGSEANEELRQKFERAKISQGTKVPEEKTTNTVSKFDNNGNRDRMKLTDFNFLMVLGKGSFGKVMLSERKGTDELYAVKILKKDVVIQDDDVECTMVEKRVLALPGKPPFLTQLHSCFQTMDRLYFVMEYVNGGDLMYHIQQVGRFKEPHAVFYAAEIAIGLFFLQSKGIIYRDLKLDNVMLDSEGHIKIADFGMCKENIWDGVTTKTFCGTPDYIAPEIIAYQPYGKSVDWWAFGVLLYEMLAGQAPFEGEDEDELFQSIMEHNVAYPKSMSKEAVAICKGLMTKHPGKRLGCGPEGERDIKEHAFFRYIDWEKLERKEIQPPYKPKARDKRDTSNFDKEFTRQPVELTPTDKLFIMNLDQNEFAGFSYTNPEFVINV
The target in experiment [2] is MAP/microtubule affinity-regulating kinase 3 (Homo sapiens) (UniProt P27448). The experiment can be described thus: Inhibition of human full length c-TAK1 expressed in Escherichia coli cell assessed as substrate phosphorylation using fluorescence-labelled peptides as substrate at 0.1 uM after 90 mins by microfluidic peptide phosphorylation assay.
MAP/microtubule affinity-regulating kinase 3 (Homo sapiens), sequence (P27448 whole entry, looked up): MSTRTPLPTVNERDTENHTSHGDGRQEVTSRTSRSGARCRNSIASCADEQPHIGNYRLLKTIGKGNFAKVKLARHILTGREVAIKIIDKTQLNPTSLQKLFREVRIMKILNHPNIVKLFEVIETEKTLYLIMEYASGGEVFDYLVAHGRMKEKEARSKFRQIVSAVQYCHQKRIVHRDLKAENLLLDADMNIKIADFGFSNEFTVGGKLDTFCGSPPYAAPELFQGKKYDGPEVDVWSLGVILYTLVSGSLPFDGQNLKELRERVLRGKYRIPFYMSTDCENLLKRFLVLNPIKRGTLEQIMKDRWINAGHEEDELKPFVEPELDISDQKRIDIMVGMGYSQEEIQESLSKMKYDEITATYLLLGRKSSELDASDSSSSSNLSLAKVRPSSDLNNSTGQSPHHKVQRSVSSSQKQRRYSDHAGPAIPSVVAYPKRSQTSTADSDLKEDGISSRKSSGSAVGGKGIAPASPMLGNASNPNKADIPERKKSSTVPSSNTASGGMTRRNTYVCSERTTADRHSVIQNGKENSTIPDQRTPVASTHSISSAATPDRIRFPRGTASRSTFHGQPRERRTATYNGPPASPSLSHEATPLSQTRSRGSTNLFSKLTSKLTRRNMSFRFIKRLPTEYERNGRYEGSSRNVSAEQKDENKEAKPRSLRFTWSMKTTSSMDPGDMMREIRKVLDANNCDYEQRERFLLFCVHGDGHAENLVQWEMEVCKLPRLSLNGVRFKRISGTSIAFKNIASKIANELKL
Experiment [3] deals with Tyrosine-protein kinase ABL1 (Homo sapiens) (UniProt P00519). The experiment can be described thus: Inhibition of human full-length ABL expressed in baculovirus assessed as substrate phosphorylation using fluorescence-labelled peptides as substrate at 0.06 uM after 90 mins by microfluidic peptide phosphorylation assay.
Experiment [4] concerns the target Insulin receptor (Homo sapiens) (UniProt P06213). As to the kind of experiment: Inhibition of human INSR catalytic domain expressed in baculovirus assessed as substrate phosphorylation using fluorescence-labelled peptides as substrate at 9 uM after 90 mins by microfluidic peptide phosphorylation assay.
The target of experiment [5] is Protein kinase C beta type (Homo sapiens) (UniProt P05771). The experiment can be described thus: Inhibition of human truncated PKC beta1 expressed in baculovirus assessed as substrate phosphorylation using fluorescence-labelled peptides as substrate at 9 uM after 90 mins by microfluidic peptide phosphorylation assay.
In experiment [6] the target is Tyrosine-protein kinase Fer (Homo sapiens) (UniProt P16591). The experiment can be described thus: Inhibition of human FER catalytic domain expressed in baculovirus assessed as substrate phosphorylation using fluorescence-labelled peptides as substrate at 95 uM after 90 mins by microfluidic peptide phosphorylation assay.
Experiment [7] has as its target Epidermal growth factor receptor (Homo sapiens) (UniProt P00533). The experiment can be described thus: Inhibition of human EGFR catalytic domain expressed in baculovirus assessed as substrate phosphorylation using fluorescence-labelled peptides as substrate at 95 uM after 90 mins by microfluidic peptide phosphorylation assay.
Experiment [8] has as its target Ribosomal protein S6 kinase alpha-2 (Homo sapiens) (UniProt Q15349). As to the kind of experiment: Inhibition of human full length RSK3 expressed in baculovirus assessed as substrate phosphorylation using fluorescence-labelled peptides as substrate at 95 uM after 90 mins by microfluidic peptide phosphorylation assay.
For a further experiment, the species on record is Homo sapiens. As to the kind of experiment: Inhibition of human full length PKA expressed in baculovirus assessed as substrate phosphorylation using fluorescence-labelled peptides as substrate at 8 uM after 90 mins by microfluidic peptide phosphorylation assay.
In experiment [9] the target is Mitogen-activated protein kinase 1 (Homo sapiens) (UniProt P28482). The experiment can be described thus: Inhibition of human full length ERK2 expressed in Escherichia coli cell assessed as substrate phosphorylation using fluorescence-labelled peptides as substrate at 8 uM after 90 mins by microfluidic peptide phosphorylation assay.
Mitogen-activated protein kinase 1 (Homo sapiens), sequence (P28482 whole entry): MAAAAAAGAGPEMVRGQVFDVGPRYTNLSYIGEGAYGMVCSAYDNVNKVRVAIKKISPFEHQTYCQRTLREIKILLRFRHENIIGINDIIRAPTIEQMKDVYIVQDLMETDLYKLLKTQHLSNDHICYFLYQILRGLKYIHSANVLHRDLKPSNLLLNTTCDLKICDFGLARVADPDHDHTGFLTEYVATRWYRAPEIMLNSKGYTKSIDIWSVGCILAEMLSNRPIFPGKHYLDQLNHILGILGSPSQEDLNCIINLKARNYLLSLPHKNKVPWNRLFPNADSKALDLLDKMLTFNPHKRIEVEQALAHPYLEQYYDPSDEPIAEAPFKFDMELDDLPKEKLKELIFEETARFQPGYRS
Experiment [10] concerns the target T1, Serine/threonine-protein kinase D2 (Homo sapiens) (UniProt Q9BZL6).
T1 sequence (whole entry): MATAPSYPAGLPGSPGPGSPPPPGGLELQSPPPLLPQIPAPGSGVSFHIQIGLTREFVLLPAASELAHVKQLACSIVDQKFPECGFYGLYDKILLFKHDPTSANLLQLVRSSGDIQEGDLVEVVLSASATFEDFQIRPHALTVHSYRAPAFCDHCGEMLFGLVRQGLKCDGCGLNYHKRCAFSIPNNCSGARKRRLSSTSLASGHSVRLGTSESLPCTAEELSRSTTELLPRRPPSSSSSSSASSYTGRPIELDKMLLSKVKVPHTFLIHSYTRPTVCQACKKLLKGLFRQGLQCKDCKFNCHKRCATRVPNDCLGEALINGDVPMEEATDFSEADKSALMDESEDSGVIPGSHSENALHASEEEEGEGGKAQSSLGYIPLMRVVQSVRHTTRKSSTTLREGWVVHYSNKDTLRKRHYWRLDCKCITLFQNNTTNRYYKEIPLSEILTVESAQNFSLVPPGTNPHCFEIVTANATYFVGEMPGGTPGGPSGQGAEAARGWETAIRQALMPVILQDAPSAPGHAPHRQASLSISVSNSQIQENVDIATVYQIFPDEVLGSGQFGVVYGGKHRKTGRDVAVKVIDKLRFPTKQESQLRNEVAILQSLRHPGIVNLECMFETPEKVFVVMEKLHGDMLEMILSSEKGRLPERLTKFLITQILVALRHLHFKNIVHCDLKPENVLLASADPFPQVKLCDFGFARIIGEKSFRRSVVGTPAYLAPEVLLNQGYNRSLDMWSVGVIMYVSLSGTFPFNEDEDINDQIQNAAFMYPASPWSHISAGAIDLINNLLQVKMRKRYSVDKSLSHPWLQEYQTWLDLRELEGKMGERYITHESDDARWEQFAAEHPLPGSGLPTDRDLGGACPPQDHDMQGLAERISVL
The experiment can be described thus: Inhibition of human full length PKD2 expressed in baculovirus assessed as substrate phosphorylation using fluorescence-labelled peptides as substrate at 70 uM after 90 mins by microfluidic peptide phosphorylation assay.

Experiment [11] concerns the target T2, Serine/threonine-protein kinase Sgk3 (Homo sapiens) (UniProt Q96BR1).
T2 sequence (whole entry): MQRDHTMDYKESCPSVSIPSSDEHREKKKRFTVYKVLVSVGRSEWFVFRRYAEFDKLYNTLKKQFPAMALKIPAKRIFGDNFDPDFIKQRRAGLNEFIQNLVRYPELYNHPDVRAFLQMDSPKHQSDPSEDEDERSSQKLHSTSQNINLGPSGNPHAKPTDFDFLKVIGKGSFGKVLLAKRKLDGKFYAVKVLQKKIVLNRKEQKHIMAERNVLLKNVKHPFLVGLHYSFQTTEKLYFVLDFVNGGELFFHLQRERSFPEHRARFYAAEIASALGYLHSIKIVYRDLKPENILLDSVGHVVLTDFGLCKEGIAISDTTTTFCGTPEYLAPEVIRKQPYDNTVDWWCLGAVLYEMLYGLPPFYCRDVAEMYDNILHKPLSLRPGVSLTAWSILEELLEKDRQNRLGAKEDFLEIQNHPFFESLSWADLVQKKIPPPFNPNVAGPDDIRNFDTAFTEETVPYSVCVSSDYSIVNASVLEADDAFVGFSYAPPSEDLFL
As to the kind of experiment: Inhibition of human full length SGK3 expressed in baculovirus assessed as substrate phosphorylation using fluorescence-labelled peptides as substrate at […] after 90 mins by microfluidic peptide phosphorylation assay.

For experiment [12], the target named is RAC-alpha serine/threonine-protein kinase (Homo sapiens) (UniProt P31749). The experiment can be described thus: Inhibition of human AKT1 catalytic domain expressed in baculovirus assessed as substrate phosphorylation using fluorescence-labelled peptides as substrate at 420 uM after 90 mins by microfluidic peptide phosphorylation assay.
RAC-alpha serine/threonine-protein kinase (Homo sapiens), sequence (P31749 whole entry, the tested form may be a part): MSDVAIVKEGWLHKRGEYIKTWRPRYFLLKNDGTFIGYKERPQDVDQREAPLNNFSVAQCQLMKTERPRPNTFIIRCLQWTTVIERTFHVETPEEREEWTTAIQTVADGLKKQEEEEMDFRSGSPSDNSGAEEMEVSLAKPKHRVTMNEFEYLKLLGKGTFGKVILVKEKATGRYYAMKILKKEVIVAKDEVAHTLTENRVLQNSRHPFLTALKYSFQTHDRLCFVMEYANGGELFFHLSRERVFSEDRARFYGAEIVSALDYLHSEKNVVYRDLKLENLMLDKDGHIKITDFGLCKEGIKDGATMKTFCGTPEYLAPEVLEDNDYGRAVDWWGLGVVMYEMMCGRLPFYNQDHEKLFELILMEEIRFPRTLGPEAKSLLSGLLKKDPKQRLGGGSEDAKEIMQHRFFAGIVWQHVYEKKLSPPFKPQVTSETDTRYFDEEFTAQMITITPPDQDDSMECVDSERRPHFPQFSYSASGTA
Experiment [13] deals with Fibroblast growth factor receptor 1 (Homo sapiens) (UniProt P11362). As to the kind of experiment: Inhibition of human FGFR1 catalytic domain expressed in baculovirus assessed as substrate phosphorylation using fluorescence-labelled peptides as substrate at 420 uM after 90 mins by microfluidic peptide phosphorylation assay.
Fibroblast growth factor receptor 1 (Homo sapiens), sequence (P11362 22-822 limits assumed): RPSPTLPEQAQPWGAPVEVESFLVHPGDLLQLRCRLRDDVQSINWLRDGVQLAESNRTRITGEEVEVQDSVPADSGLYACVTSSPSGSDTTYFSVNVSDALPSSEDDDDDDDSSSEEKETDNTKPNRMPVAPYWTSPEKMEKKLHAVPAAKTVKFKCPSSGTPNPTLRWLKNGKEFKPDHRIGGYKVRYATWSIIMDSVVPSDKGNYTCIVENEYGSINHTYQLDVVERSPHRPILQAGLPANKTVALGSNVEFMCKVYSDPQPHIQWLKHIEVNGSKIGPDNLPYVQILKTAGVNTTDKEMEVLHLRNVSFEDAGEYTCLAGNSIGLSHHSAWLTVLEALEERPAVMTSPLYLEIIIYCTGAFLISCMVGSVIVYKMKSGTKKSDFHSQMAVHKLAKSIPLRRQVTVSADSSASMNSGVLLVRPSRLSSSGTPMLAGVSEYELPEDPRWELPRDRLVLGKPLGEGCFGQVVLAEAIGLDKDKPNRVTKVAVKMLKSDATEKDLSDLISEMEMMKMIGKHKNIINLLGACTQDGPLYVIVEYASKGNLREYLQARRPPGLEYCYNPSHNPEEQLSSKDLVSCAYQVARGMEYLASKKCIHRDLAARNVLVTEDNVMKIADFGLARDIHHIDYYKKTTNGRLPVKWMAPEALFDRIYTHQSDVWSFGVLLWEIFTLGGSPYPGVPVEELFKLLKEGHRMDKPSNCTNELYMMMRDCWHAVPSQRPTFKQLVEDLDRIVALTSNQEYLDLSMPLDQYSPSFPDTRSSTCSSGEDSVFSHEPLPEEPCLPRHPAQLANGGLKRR
Experiment [14] deals with Ribosomal protein S6 kinase alpha-5 (Homo sapiens) (UniProt O75582). The experiment can be described thus: Inhibition of human full length MSK1 expressed in baculovirus assessed as substrate phosphorylation using fluorescence-labelled peptides as substrate at 1000 uM after 90 mins by microfluidic peptide phosphorylation assay.
Ribosomal protein S6 kinase alpha-5 (Homo sapiens), sequence (O75582 whole entry, looked up): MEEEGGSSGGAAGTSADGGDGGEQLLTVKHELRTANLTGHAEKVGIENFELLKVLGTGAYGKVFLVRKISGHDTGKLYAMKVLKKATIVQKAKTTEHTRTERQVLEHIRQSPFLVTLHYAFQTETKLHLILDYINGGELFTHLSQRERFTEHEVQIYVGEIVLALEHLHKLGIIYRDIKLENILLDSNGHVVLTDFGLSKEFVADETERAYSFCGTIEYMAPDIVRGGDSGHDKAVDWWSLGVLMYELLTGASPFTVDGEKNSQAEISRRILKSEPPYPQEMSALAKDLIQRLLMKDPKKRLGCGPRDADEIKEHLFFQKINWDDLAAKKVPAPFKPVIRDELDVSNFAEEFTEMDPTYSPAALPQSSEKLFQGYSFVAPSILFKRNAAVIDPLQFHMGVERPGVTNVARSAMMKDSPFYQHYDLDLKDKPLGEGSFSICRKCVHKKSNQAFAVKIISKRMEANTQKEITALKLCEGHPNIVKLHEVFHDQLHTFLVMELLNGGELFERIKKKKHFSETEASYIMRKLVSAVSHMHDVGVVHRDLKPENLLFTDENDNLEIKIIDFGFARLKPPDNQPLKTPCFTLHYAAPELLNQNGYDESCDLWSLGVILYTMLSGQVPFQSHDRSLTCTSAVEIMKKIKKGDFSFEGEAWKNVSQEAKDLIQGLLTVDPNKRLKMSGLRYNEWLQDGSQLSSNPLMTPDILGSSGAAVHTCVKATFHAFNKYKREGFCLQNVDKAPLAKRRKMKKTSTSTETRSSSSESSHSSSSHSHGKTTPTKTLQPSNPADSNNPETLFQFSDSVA

Epidermal growth factor receptor (Homo sapiens), sequence (P00533 whole entry, the tested form may be a part): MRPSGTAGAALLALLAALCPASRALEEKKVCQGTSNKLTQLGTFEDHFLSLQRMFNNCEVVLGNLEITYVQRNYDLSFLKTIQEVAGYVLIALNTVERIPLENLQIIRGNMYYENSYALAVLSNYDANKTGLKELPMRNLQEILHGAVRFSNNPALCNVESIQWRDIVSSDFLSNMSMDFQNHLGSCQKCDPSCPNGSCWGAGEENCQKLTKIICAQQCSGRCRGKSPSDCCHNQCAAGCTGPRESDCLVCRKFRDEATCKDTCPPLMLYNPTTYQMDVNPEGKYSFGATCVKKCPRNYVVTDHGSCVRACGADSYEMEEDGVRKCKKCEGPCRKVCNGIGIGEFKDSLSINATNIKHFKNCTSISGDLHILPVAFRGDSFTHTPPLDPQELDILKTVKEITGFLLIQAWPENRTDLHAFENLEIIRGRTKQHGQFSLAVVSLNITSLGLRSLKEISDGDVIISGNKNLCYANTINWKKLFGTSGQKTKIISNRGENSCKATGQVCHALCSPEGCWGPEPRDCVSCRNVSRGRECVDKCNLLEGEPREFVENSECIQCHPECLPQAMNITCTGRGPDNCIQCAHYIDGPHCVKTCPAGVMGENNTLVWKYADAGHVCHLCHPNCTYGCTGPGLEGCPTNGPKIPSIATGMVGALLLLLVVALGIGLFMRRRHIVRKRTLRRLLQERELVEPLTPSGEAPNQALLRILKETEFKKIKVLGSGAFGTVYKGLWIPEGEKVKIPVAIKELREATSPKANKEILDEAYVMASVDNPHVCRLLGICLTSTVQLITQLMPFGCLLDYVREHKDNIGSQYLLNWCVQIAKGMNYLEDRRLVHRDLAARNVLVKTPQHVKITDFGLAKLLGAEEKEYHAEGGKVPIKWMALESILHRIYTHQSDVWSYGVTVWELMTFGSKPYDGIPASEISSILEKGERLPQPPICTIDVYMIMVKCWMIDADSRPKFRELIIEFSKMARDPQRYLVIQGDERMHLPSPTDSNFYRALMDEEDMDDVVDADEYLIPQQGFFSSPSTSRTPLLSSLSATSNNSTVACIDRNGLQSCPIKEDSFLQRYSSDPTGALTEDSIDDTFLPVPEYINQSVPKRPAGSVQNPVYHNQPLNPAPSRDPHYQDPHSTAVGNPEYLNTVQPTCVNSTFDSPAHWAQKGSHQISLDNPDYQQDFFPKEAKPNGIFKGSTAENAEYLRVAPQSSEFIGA

A word on the inhibition: it is the percentage by which the read-out fell short of the control. Consider `NC1CCN(c2ncnc3[nH]ccc23)CC1`, for which, in experiment [1], the inhibition was 62.5%.
In the case of `C[C@H](CN(C)C)Oc1nc(Nc2cc3cccc(Cl)c3cn2)cnc1C#N`, the inhibition in experiment [2] is 6%.
`NC1(Cc2ccc(Cl)cc2)CCN(c2ncnc3[nH]ccc23)CC1`: the inhibition in experiment [3] amounted to 13%.
Take `NCC1CN(c2ncnc3[nH]c4cnccc4c23)CCO1` (stereo not given): the inhibition in experiment [4] amounted to 2.5%; in experiment [5], 22.5%.
On to `NCCc1ccc(-c2ncnc3[nH]cnc23)cc1`, for which the inhibition in experiment [6] was 28%; in experiment [7] it was 19.5%; in experiment [8], 89%.
As to `NCC1CCN(c2ncnc3[nH]ccc23)CC1`, the inhibition in the experiment filed under Homo sapiens was found to be 29.5%; in [9], 7.5%.
For `CNCc1ccc(-c2ncnc3[nH]cnc23)cc1`, the inhibition in experiment [10] is 77.5%.
On to `COC(=O)c1cnc(Nc2cnc(C#N)cn2)cc1NCC1CCNCC1`, for which, in experiment [11], the inhibition worked out at 5%.
As for `c1nc(N2CCOCC2)c2nc[nH]c2n1`, the inhibition is 61.5% in experiment [12] and 97% in experiment [13].
`c1cnc2[nH]ccc2c1`: in [14], the inhibition amounted to 87%.
